Measured values taken from PubChem BioAssay AID1918996 (Molecular Pharmacology Branch, DTP, NCI, 2023).
Each block holds one molecule with its values, some of them ahead of it.

Tested on: 349418-098-R-PDC complex spheroid growth
Experiment: Anticancer human tumor 349418-098-R-PDC patient-derived lung adenocarcinoma cell line growth inhibition [AhR]
Settings: for IC50: curve of first compound; for viability, T/C: stronger effect = lower value
How it was run: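 Complex tumor spheroids co-cultured with HUVEC and human MSC stroma; AhR antagonists tested in combination with standard-of-care and investigational agents. Top concentration at or near clinical Cmax (else 10 microM), half-log dilutions; growth expressed as percent test/control.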

[1] = second compound 0.1 µM, first compound 0.0316 µM
[2] = second compound 0.1 µM, first compound 0.1 µM
[3] = second compound 0.1 µM, first compound 0.316 µM
[4] = second compound 0.1 µM, first compound 1 µM
[5] = second compound 0.1 µM, first compound 3.16 µM
[6] = second compound 0.1 µM, first compound 10 µM
[7] = second compound 0.316 µM, first compound 0.0316 µM
[8] = second compound 0.316 µM, first compound 0.1 µM
[9] = second compound 0.316 µM, first compound 0.316 µM
[10] = second compound 0.316 µM, first compound 1 µM
[11] = second compound 0.316 µM, first compound 3.16 µM
[12] = second compound 0.316 µM, first compound 10 µM
[13] = second compound 1 µM, first compound 0.0316 µM
[14] = second compound 1 µM, first compound 0.1 µM
[15] = second compound 1 µM, first compound 0.316 µM
[16] = second compound 1 µM, first compound 1 µM
[17] = second compound 1 µM, first compound 3.16 µM
[18] = second compound 1 µM, first compound 10 µM
[19] = second compound 3.16 µM, first compound 0.0316 µM
[20] = second compound 3.16 µM, first compound 0.1 µM
[21] = second compound 3.16 µM, first compound 0.316 µM
[22] = second compound 3.16 µM, first compound 1 µM
[23] = second compound 3.16 µM, first compound 3.16 µM
[24] = second compound 3.16 µM, first compound 10 µM
[25] = second compound 10 µM, first compound 0.0316 µM
[26] = second compound 10 µM, first compound 0.1 µM
[27] = second compound 10 µM, first compound 0.316 µM
[28] = second compound 10 µM, first compound 1 µM
[29] = second compound 10 µM, first compound 3.16 µM
[30] = second compound 10 µM, first compound 10 µM
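Note: spheroids exposed to agents for seven days before luminescence viability read.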
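Throughout, for viability, T/C: spheroids also contain HUVEC endothelial cells and human MSC stroma.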

IC50 (second compound 0.1 µM): > 10000 nM | IC50 (second compound 0.316 µM): > 10000 nM | IC50 (second compound 1 µM): > 10000 nM | IC50 (second compound 3.16 µM): < 31.6 nM | IC50 (second compound 10 µM): < 31.6 nM
SMILES: CC1(C)CCC(CN2CCN(c3ccc(C(=O)NS(=O)(=O)c4ccc(NCC5CCOCC5)c([N+](=O)[O-])c4)c(Oc4cnc5[nH]ccc5c4)c3)CC2)=C(c2ccc(Cl)cc2)C1 + Cc1cncc(-c2nc(NCCc3c[nH]c4ccccc34)c3ncn(C(C)C)c3n2)c1
viability, T/C [1]: 102% | viability, T/C [2]: 108% | viability, T/C [3]: 96.2% | viability, T/C [4]: 92.4% | viability, T/C [5]: 90.2% | viability, T/C [6]: 88.4% | viability, T/C [7]: 99.3% | viability, T/C [8]: 99.8% | viability, T/C [9]: 103% | viability, T/C [10]: 87.7% | viability, T/C [11]: 90.8% | viability, T/C [12]: 94.1% | viability, T/C [13]: 104% | viability, T/C [14]: 98.5% | viability, T/C [15]: 91.3% | viability, T/C [16]: 81.4% | viability, T/C [17]: 83% | viability, T/C [18]: 86.4% | viability, T/C [19]: 22.3% | viability, T/C [20]: 24.5% | viability, T/C [21]: 23.2% | viability, T/C [22]: 28.6% | viability, T/C [23]: 27.3% | viability, T/C [24]: 26.6% | viability, T/C [25]: 3.27% | viability, T/C [26]: 2.85% | viability, T/C [27]: 2.92% | viability, T/C [28]: 3.37% | viability, T/C [29]: 3.16% | viability, T/C [30]: 3.69%

IC50 (second compound 0.1 µM): > 3000 nM | IC50 (second compound 0.316 µM): > 3000 nM | IC50 (second compound 1 µM): > 3000 nM | IC50 (second compound 3.16 µM): < 9.49 nM | IC50 (second compound 10 µM): < 9.49 nM
SMILES: CCN(c1cc(-c2ccc(CN3CCOCC3)cc2)cc(C(=O)NCc2c(C)cc(C)[nH]c2=O)c1C)C1CCOCC1 + Cc1cncc(-c2nc(NCCc3c[nH]c4ccccc34)c3ncn(C(C)C)c3n2)c1
viability, T/C (second compound 0.1 µM, first compound 0.00949 µM): 98.9% | viability, T/C (second compound 0.1 µM, first compound 0.03 µM): 85% | viability, T/C (second compound 0.1 µM, first compound 0.0949 µM): 98% | viability, T/C (second compound 0.1 µM, first compound 0.3 µM): 96.5% | viability, T/C (second compound 0.1 µM, first compound 0.949 µM): 97.7% | viability, T/C (second compound 0.1 µM, first compound 3 µM): 80.5% | viability, T/C (second compound 0.316 µM, first compound 0.00949 µM): 105% | viability, T/C (second compound 0.316 µM, first compound 0.03 µM): 94.2% | viability, T/C (second compound 0.316 µM, first compound 0.0949 µM): 103% | viability, T/C (second compound 0.316 µM, first compound 0.3 µM): 103% | viability, T/C (second compound 0.316 µM, first compound 0.949 µM): 105% | viability, T/C (second compound 0.316 µM, first compound 3 µM): 76.5% | viability, T/C (second compound 1 µM, first compound 0.00949 µM): 82.8% | viability, T/C (second compound 1 µM, first compound 0.03 µM): 94% | viability, T/C (second compound 1 µM, first compound 0.0949 µM): 81% | viability, T/C (second compound 1 µM, first compound 0.3 µM): 74.5% | viability, T/C (second compound 1 µM, first compound 0.949 µM): 77.2% | viability, T/C (second compound 1 µM, first compound 3 µM): 71.9% | viability, T/C (second compound 3.16 µM, first compound 0.00949 µM): 19.9% | viability, T/C (second compound 3.16 µM, first compound 0.03 µM): 17.9% | viability, T/C (second compound 3.16 µM, first compound 0.0949 µM): 19.6% | viability, T/C (second compound 3.16 µM, first compound 0.3 µM): 15.1% | viability, T/C (second compound 3.16 µM, first compound 0.949 µM): 14.2% | viability, T/C (second compound 3.16 µM, first compound 3 µM): 12.3% | viability, T/C (second compound 10 µM, first compound 0.00949 µM): 3.07% | viability, T/C (second compound 10 µM, first compound 0.03 µM): 3.18% | viability, T/C (second compound 10 µM, first compound 0.0949 µM): 2.66% | viability, T/C (second compound 10 µM, first compound 0.3 µM): 2.82% | viability, T/C (second compound 10 µM, first compound 0.949 µM): 2.27% | viability, T/C (second compound 10 µM, first compound 3 µM): 1.62%

IC50 (second compound 0.1 µM): > 100 nM | IC50 (second compound 0.316 µM): > 100 nM | IC50 (second compound 1 µM): > 100 nM | IC50 (second compound 3.16 µM): < 0.316 nM | IC50 (second compound 10 µM): < 0.316 nM
SMILES: Cn1ncnc1C1c2n[nH]c(=O)c3cc(F)cc(c23)NC1c1ccc(F)cc1 (stereo not given) + Cc1cncc(-c2nc(NCCc3c[nH]c4ccccc34)c3ncn(C(C)C)c3n2)c1
viability, T/C (second compound 0.1 µM, first compound 0.000316 µM): 94.4% | viability, T/C (second compound 0.1 µM, first compound 0.001 µM): 93.9% | viability, T/C (second compound 0.1 µM, first compound 0.00316 µM): 92.2% | viability, T/C (second compound 0.1 µM, first compound 0.01 µM): 87.8% | viability, T/C [1]: 82.5% | viability, T/C [2]: 80.6% | viability, T/C (second compound 0.316 µM, first compound 0.000316 µM): 90.1% | viability, T/C (second compound 0.316 µM, first compound 0.001 µM): 98% | viability, T/C (second compound 0.316 µM, first compound 0.00316 µM): 85.7% | viability, T/C (second compound 0.316 µM, first compound 0.01 µM): 88% | viability, T/C [7]: 85.6% | viability, T/C [8]: 78.5% | viability, T/C (second compound 1 µM, first compound 0.000316 µM): 86.7% | viability, T/C (second compound 1 µM, first compound 0.001 µM): 81.6% | viability, T/C (second compound 1 µM, first compound 0.00316 µM): 89.8% | viability, T/C (second compound 1 µM, first compound 0.01 µM): 78.2% | viability, T/C [13]: 78.8% | viability, T/C [14]: 78.4% | viability, T/C (second compound 3.16 µM, first compound 0.000316 µM): 17.9% | viability, T/C (second compound 3.16 µM, first compound 0.001 µM): 23.4% | viability, T/C (second compound 3.16 µM, first compound 0.00316 µM): 23.8% | viability, T/C (second compound 3.16 µM, first compound 0.01 µM): 19.4% | viability, T/C [19]: 25.5% | viability, T/C [20]: 21.6% | viability, T/C (second compound 10 µM, first compound 0.000316 µM): 2.6% | viability, T/C (second compound 10 µM, first compound 0.001 µM): 2.33% | viability, T/C (second compound 10 µM, first compound 0.00316 µM): 3.01% | viability, T/C (second compound 10 µM, first compound 0.01 µM): 2.42% | viability, T/C [25]: 2.36% | viability, T/C [26]: 2.64%

IC50 (second compound 0.1 µM): 192 nM | IC50 (second compound 0.316 µM): 161 nM | IC50 (second compound 1 µM): 142 nM | IC50 (second compound 3.16 µM): < 31.6 nM | IC50 (second compound 10 µM): < 31.6 nM
SMILES: NS(=O)(=O)OCC1CC(n2ccc3c(NC4CCc5ccccc54)ncnc32)CC1O (stereo not given) + Cc1cncc(-c2nc(NCCc3c[nH]c4ccccc34)c3ncn(C(C)C)c3n2)c1
viability, T/C [1]: 101% | viability, T/C [2]: 69.6% | viability, T/C [3]: 35.1% | viability, T/C [4]: 14.4% | viability, T/C [5]: 9.84% | viability, T/C [6]: 4.65% | viability, T/C [7]: 89.1% | viability, T/C [8]: 71.6% | viability, T/C [9]: 19% | viability, T/C [10]: 12.2% | viability, T/C [11]: 6.13% | viability, T/C [12]: 4.07% | viability, T/C [13]: 86.2% | viability, T/C [14]: 63.3% | viability, T/C [15]: 19.2% | viability, T/C [16]: 12.1% | viability, T/C [17]: 6.14% | viability, T/C [18]: 4.69% | viability, T/C [19]: 28.4% | viability, T/C [20]: 26.2% | viability, T/C [21]: 18.7% | viability, T/C [22]: 7.99% | viability, T/C [23]: 3.97% | viability, T/C [24]: 3.43% | viability, T/C [25]: 2.2% | viability, T/C [26]: 1.97% | viability, T/C [27]: 1.34% | viability, T/C [28]: 0.88% | viability, T/C [29]: 1.03% | viability, T/C [30]: 0.56%
